Experimental findings from ChEMBL document CHEMBL2074102, “Expression and functional characterization of rat organic anion transporter 3 (rOat3) in the choroid plexus” (Mol Pharmacol, 2002) are described below.

What all share (assay type): functional, cell-based
Data set [1] concerns the target T1, Organic anion transporter 3 (Rattus norvegicus, UniProt Q9R1U7).
T1 sequence (Q9R1U7 whole entry): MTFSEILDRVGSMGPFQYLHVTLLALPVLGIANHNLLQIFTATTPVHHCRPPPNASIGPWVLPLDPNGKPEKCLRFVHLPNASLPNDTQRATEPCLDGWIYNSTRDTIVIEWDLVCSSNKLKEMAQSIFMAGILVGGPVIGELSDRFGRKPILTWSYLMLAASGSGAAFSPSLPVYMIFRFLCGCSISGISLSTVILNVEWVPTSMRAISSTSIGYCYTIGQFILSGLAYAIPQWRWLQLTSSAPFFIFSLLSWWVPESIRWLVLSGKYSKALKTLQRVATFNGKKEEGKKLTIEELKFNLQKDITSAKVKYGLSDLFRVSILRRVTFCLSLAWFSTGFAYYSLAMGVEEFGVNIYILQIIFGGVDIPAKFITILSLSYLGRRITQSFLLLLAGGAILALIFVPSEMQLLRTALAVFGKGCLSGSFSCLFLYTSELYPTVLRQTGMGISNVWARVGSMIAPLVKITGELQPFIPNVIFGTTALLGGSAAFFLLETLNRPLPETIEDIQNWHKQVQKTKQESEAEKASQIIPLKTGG
The data set is described as follows: TP_TRANSPORTER: inhibition of PCG uptake in Oat3-expressing LLC-PK1 cells.

For data set [2], the target named is T2, Solute carrier family 22 member 6 (Rattus norvegicus, UniProt O35956).
T2 sequence (O35956 whole entry): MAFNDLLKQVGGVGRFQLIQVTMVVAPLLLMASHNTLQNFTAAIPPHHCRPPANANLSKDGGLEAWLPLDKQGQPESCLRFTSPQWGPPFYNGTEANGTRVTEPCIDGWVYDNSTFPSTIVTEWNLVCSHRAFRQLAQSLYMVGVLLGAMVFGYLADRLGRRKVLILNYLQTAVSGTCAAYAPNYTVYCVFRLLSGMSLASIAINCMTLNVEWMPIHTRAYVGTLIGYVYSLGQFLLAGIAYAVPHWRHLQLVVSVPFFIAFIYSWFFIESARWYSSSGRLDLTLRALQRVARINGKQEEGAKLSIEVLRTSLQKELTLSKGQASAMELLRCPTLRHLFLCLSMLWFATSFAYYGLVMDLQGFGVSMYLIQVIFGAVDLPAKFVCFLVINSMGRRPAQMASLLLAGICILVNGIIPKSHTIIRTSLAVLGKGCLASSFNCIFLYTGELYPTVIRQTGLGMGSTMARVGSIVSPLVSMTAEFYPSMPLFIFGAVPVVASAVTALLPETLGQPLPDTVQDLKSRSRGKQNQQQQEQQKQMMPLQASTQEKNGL
The experiment in a line: TP_TRANSPORTER: inhibition of PAH uptake in Oat1-expressing LLC-PK1 cells.

For data set [3], the target named is T1, Organic anion transporter 3. The experiment in a line: TP_TRANSPORTER: inhibition of PCG uptake in OAT3-expressing LLC-PK1 cells.
Substrate in data set [4]: CC1(C)S[C@@H]2[C@H](NC(=O)Cc3ccccc3)C(=O)N2[C@H]1C(=O)O
The data set is described as follows: TP_TRANSPORTER: uptake in Oat3-expressing LLC-PK1 cells.

Regarding `C[C@]12CC[C@@H]3c4ccc(O)cc4CC[C@H]3[C@@H]1CC[C@@H]2O[C@@H]1O[C@H](C(=O)O)[C@@H](O)[C@H](O)[C@H]1O` [ESTRADIOL 17B GLUCURONIDE], the Ki (usually a dissociation constant, usually derived from enzyme kinetics or from competition with a known ligand) is 35.6 µM in data set [1] and above 300 µM in data set [2].
The molecule `Nc1ccc(C(=O)NCC(=O)O)cc1` [AMINOHIPPURIC ACID] displayed a Ki in data set [1] of 398 µM.
In the case of `CN/C(=N/CCSCc1nc[nH]c1C)NC#N` [CIMETIDINE], the Ki in data set [3] was 46.8 µM; in data set [2], above 1000 µM.
Consider `CCCN(CCC)S(=O)(=O)c1ccc(C(=O)O)cc1` [PROBENECID], for which the Ki in data set [1] worked out at 4.43 µM.
`C[C@]12CC[C@@H]3c4ccc(OS(=O)(=O)O)cc4CC[C@H]3[C@@H]1CCC2=O` [ESTRONE SULFURIC ACID]: in data set [3], the Ki amounted to 9.1 µM.

B1: Organic anion transporter 3 (Rattus norvegicus) (protein)
chain: T1 sequence (Q9R1U7 whole entry)
Regarding B1, in data set [4], the Km (in general, the concentration of substrate that gives half-maximal velocity) was determined as 82.6 µM.
